This is an account of results in patent US20040176285A1, “Tip39 polypeptides” (priority 2001, published 2004).

The target of assay [1] is T1, PTH1R (Homo sapiens, UniProt Q03431).
T1 sequence (Q03431 27-593): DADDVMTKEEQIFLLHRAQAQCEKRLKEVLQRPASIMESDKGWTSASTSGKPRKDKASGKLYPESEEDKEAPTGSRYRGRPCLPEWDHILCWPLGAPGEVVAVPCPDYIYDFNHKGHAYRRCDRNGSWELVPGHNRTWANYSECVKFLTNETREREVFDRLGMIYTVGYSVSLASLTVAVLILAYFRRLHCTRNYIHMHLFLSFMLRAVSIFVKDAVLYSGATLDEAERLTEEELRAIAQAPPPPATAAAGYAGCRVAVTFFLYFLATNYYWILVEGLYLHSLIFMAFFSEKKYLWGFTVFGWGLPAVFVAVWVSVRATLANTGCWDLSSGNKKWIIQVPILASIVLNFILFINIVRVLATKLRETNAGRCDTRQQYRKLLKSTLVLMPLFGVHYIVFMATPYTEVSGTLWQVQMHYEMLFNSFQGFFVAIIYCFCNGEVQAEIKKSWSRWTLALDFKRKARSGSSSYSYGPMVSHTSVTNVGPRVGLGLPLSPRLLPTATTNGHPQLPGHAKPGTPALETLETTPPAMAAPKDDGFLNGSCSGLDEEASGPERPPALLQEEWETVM
The experiment in a line: Inhibition of agonist-stimulated cAMP accumulation in HKrk-B7 cells. The class given is cell-based. Further details: expressed in transfected cells. The note with it: agonist PTH(1-34), PTHrP(1-36) or PTHrP(1-20)/TIP(23-39) at 1 nM (about half-maximal). An excerpt: (§1) FIG. 4A-4F. Inhibition of agonist-stimulated cAMP accumulation in HKrk-B7 cells (FIG. 4A-4C) or SaOS-2 cells (FIG. 4D-4F). […] Data are expressed as % of half-maximal cAMP accumulation and represent the results (mean±SE) of at least three independent experiments.
(§2) Na^125I (specific activity: 2,000 Ci/mmol) was purchased from DuPont/NEN, Boston, Mass. Fetal bovine serum, 3-isobutyl-1-methyl-xanthine (IBMX), and BSA were from Sigma, St. Louis, Mo., and trifluoroacetic acid (TFA) was from Pierce, Rockford, Ill. Radiolabeled rPTH(1-34) and PTHrP(1-36) were prepared by the chloramine-T method, followed by HPLC purification using a 30-50% ACN/0.1% TFA gradient over 30 minutes; radioreceptor assays were performed in 24-well plates as previously described (Gardella, T. J., et al., J. Biol. Chem. 271:19888-19893 (1996); Fukayama, S. et al., Endocrinology 134:1851-1858 (1994)). […] The entire lysate was counted for γ-irradiation. Specific binding was determined after subtracting radioactivity bound in the presence of maximal concentrations of unlabeled competing peptide (10^−6 M). […] Data were analyzed and graphically illustrated using the graph-pad prism software package.
(In general: Cyclic AMP is a second messenger, typically raised through Gs and lowered through Gi signalling.)

The target of a further assay is T2, endogenous PTH1R (Homo sapiens, UniProt Q03431).
T2 construct: SaOS-2 cells expressing the wild-type PTH1R endogenously; endogenous in cells; host or cells: SaOS-2 human osteosarcoma cells
T2 sequence (Q03431 27-593): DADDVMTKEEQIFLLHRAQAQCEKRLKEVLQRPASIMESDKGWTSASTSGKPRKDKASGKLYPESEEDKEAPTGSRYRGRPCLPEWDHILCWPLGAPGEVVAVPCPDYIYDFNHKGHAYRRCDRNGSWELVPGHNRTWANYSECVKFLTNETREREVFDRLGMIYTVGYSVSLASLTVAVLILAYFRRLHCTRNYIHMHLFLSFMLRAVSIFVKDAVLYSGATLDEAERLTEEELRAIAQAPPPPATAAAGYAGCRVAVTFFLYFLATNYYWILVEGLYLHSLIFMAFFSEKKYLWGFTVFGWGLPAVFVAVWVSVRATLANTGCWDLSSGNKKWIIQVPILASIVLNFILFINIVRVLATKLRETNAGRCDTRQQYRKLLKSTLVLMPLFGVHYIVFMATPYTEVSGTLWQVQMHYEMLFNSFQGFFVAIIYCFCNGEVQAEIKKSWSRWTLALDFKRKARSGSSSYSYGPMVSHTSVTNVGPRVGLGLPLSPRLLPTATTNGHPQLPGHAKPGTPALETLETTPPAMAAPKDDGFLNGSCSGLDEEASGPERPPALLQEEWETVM
The experiment in a line: Ligand-stimulated cAMP accumulation in SaOS-2 cells. It is filed as cell-based. Conditions: SaOS-2 cells. The procedure:
(§3) DMEM, Trypsin/EDTA, and penicillin G/streptomycin and horse serum were from Gibco/BRL, Life Technologies, Gaithersburg, Md. LLC-PK, expressing the recombinant human PTH1R (HKrk-B7 cells) and SaOS-2 cells expressing the wild-type PTH1R endogenously were cultured in DMEM supplemented with 10% heat-inactivated fetal bovine serum, 100 U/ml penicillin, 100 μg/ml streptomycin, as previously described (Gardella, T. J., et al., J. Biol. Chem. 271:19888-19893 (1996); Fukayama, S., et al., Endocrinology 134:1851-1858 (1994)); both cell lines were maintained in a humidified atmosphere containing 95% air and 5% CO2. After seeding, medium was replaced daily, until cells were used for radioligand binding or cAMP accumulation assays.
as §2, with “(1994)). In brief, each well (final volume 500 μl) contained binding buffer (BB; 50 mM Tris-HCl (pH 7.7), 100 mM NaCl, 5 mM KCl, 2 mM CaCl2, 5% heat-inactivated horse serum, and 0.5% heat-inactivated fetal bovine serum), the ^125I-labeled PTH or PTHrP analog (100,000 to 200,000 cpm) was incubated in the absence or presence of increasing concentrations of unlabeled peptides.” for “(1994)).”, “package. […]” for “package.”

The target in a further assay is T3, human PTH2 receptor (Homo sapiens, UniProt P49190).
T3 construct: expressed in transfected cells
Nature of the assay: Ligand-stimulated cAMP accumulation in hPR2-20 LLCPK1 cells. It is filed as cell-based.

Assay [2] concerns the target T1, PTH1R. Nature of the assay: Ligand-stimulated cAMP accumulation in HKrk-B7 cells. It is filed as cell-based. Also on record: expressed in transfected cells. The note with it: HKrk-B7 cells. The protocol:
as §3
Na^125I (specific activity: 2,000 Ci/mmol) was purchased from DuPont/NEN, Boston, Mass. Fetal bovine serum, 3-isobutyl-1-methyl-xanthine (IBMX), and BSA were from Sigma, St. Louis, Mo., and trifluoroacetic acid (TFA) was from Pierce, Rockford, Ill. Radiolabeled rPTH(1-34) and PTHrP(1-36) were prepared by the chloramine-T method, followed by HPLC purification using a 30-50% ACN/0.1% TFA gradient over 30 minutes; radioreceptor assays were performed in 24-well plates as previously described (Gardella, T. J., et al., J. Biol. Chem. 271:19888-19893 (1996); Fukayama, S. et al., Endocrinology 134:1851-1858 (1994)). In brief, each well (final volume 500 μl) contained binding buffer (BB; 50 mM Tris-HCl (pH 7.7), 100 mM NaCl, 5 mM KCl, 2 mM CaCl2, 5% heat-inactivated horse serum, and 0.5% heat-inactivated fetal bovine serum), the ^125I-labeled PTH or PTHrP analog (100,000 to 200,000 cpm) was incubated in the absence or presence of increasing concentrations of unlabeled peptides. After 4 h at 16° C., buffer was completely removed, the cells were rinsed with cold BB and lysed with 1 M NaOH. The entire lysate was counted for γ-irradiation. Specific binding was determined after subtracting radioactivity bound in the presence of maximal concentrations of unlabeled competing peptide (10^−6 M). Agonist-dependent stimulation of cAMP accumulation by HKrk-B7 and SaOS-2 cells (48-well plates; stimulation at room temperature for 45 minutes) and the subsequent measurement of cAMP by radioimmunoassay was performed as previously described (Gardella, T. J., et al., J. Biol. Chem. 271:19888-19893 (1996); Bergwitz, C., et al., Endocrinology 139:723-732 (1998)). Data were analyzed and graphically illustrated using the graph-pad prism software package.
The values for EC50 and Vmax (mean±SE) are derived from at least three independent experiments.

Assay [3] has as its target T1, PTH1R. Nature of the assay: Inhibition of agonist-stimulated cAMP accumulation in SaOS-2 cells. The note with it: SaOS-2 cells (stated for both cell lines); agonists 0.15-0.3 nM. Also on record: expressed in transfected cells. The class given is cell-based.
Excerpt: as §1, §2

The target in assay [4] is T1, PTH1R. The note with it: cited from earlier work.

Where no end group is shown, it is not given here.

T3 sequence (P49190 25-550): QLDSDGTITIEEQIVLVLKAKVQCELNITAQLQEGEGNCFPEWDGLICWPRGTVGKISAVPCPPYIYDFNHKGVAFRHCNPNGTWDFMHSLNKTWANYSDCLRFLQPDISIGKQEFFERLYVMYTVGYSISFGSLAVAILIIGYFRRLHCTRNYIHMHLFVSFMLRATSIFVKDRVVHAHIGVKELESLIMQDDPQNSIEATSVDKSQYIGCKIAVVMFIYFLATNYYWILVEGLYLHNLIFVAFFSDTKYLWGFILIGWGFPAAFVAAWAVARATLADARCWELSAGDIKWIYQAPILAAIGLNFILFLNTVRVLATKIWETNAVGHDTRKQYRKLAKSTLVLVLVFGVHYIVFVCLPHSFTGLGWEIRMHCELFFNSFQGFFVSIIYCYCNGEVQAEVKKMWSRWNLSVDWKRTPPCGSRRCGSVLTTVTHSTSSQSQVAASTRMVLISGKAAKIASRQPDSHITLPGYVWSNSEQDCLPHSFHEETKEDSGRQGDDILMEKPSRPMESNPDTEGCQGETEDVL

The term IC50 denotes the concentration at which inhibition is half-maximal. `CC[C@H](C)[C@H](NC(=O)[C@H](CC(C)C)NC(=O)[C@H](Cc1c[nH]cn1)NC(=O)[C@H](Cc1c[nH]cn1)NC(=O)[C@H](CC(C)C)NC(=O)[C@H](Cc1c[nH]c2ccccc12)NC(=O)[C@H](Cc1ccccc1)NC(=O)[C@H](CCCNC(=N)N)NC(=O)[C@H](CCCNC(=N)N)NC(=O)[C@H](CCCNC(=N)N)NC(=O)[C@H](CC(C)C)NC(=O)[C@H](CC(=O)O)NC(=O)[C@H](CCC(N)=O)NC(=O)[C@@H](NC(=O)[C@H](CO)NC(=O)[C@H](CCCCN)NC(=O)[C@@H](Cc1c[nH]c2ccccc12)NC(=O)[C@H](CC(C)C)NC(=O)[C@H](CC(=O)O)NC(=O)[C@H](Cc1c[nH]cn1)NC(=O)[C@H](CC(C)C)NC(=O)[C@@H](N)CC(C)C)[C@@H](C)CC)C(=O)N[C@@H](C)C(=O)N[C@@H](CCC(=O)O)C(=O)N[C@H](C(=O)N[C@@H](Cc1c[nH]cn1)C(=O)N[C@H](C(=O)N[C@@H](C)C(=O)N[C@@H](CCC(=O)O)C(=O)N[C@@H](Cc1ccc(O)cc1)C(N)=O)[C@@H](C)O)[C@@H](C)CC` [PTHrP(7-36), [Leu^11, D-Trp^12, Trp^23, Tyr^36]PTHrP(7-36)amide] showed an IC50 on PTH1R [1] of about 100 nM.
As for `CSCC[C@H](NC(=O)[C@H](Cc1ccc(O)cc1)NC(=O)[C@H](CO)NC(=O)[C@H](CC(N)=O)NC(=O)[C@H](CC(C)C)NC(=O)[C@H](Cc1c[nH]c2ccccc12)NC(=O)[C@H](Cc1c[nH]cn1)NC(=O)[C@H](CCCNC(=N)N)NC(=O)[C@H](CCCNC(=N)N)NC(=O)[C@H](CCC(=O)O)NC(=O)[C@H](CC(C)C)NC(=O)[C@H](C)NC(=O)[C@H](C)NC(=O)[C@H](CC(C)C)NC(=O)[C@H](CC(C)C)NC(=O)[C@H](CCCNC(=N)N)NC(=O)[C@H](C)NC(=O)[C@H](CCCNC(=N)N)NC(=O)[C@H](CCC(=O)O)NC(=O)[C@H](CCCNC(=N)N)NC(=O)[C@H](Cc1ccccc1)NC(=O)[C@H](C)NC(=O)[C@H](C)NC(=O)[C@H](CC(=O)O)NC(=O)[C@H](CC(=O)O)NC(=O)[C@H](C)NC(=O)[C@H](CC(C)C)NC(=O)[C@H](C)NC(=O)[C@H](CC(C)C)NC(=O)[C@@H](N)CO)C(=O)N[C@@H](Cc1c[nH]cn1)C(=O)N[C@@H](CCCCN)C(=O)N[C@@H](CC(C)C)C(=O)N[C@@H](CC(C)C)C(=O)N[C@H](C(=O)N[C@@H](CC(C)C)C(=O)N[C@@H](CC(=O)O)C(=O)N[C@@H](C)C(=O)N1CCC[C@H]1C(N)=O)C(C)C` [TIP(1-39), reference compound], the “stimulation of cAMP accumulation (in words)” value on endogenous PTH1R is reported as “failed to stimulate cAMP accumulation”. Further, the “maximum cAMP accumulation” value at human PTH2 receptor came out at 136.5±4.9 pmol/well. Besides, the “stimulation of cAMP accumulation at the PTH1R (in words)” value at PTH1R [2] is given as “failed to stimulate cAMP accumulation”. For the same molecule, the “inhibition of agonist actions (in words)” value on PTH1R [3] was “inhibited the actions of the three agonists”.
Regarding “PTH(15-34)amide (LNSMERVEWLRKKLQDVHNF; not fully specified (C-terminus); UniProt P01270 46-65, looked up, fragment)”, the “affinity for the PTH1R (in words)” value with PTH1R [4] is reported as “very low (micromolar) affinity”.
